{"source": "patent US11299489B1", "about": "“Thiazole compounds as protein kinase inhibitors” (NATIONAL HEALTH RESEARCH INSTITUTES, priority 2020, dated 2022)", "key": {"[1]": {"molecular_target": "T1, GST-FLT3-KD WT (FLT3 kinase catalytic domain) (Homo sapiens, UniProt P36888)", "T1 construct": "containing the FLT3 kinase catalytic domain (residues Y567-5993); GST; made in house; host or cells: Sf9 insect cells (baculovirus, pBac-PAK8-GST-FLT3-KD plasmid)", "T1 sequence (P36888 567-993 limits assumed)": "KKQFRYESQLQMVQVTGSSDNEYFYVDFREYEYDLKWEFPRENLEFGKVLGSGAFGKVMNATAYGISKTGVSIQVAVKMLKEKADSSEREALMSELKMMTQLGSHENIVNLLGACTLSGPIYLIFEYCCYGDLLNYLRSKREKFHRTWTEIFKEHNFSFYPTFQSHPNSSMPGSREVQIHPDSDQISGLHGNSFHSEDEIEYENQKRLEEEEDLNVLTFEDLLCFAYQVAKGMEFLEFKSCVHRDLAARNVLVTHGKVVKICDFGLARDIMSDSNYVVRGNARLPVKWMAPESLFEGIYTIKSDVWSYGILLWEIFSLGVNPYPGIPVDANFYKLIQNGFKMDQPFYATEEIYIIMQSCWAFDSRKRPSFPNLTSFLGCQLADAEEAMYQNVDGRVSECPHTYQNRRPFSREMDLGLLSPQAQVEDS", "test": "FLT3 WT Kinase-Glo assay", "format": "biochemical", "details": "1 μM ATP, 30° C., 4 h; read-out: IC50, inhibiting FLT3 activity", "protocol": "A study was carried out as follows to test compound 1 HCl salt prepared according to EXAMPLE 1 in inhibiting FLT3 activity.\nGST-FLT3-KD^WT containing the FLT3 kinase catalytic domain (residues Y567-5993) was expressed in Sf9 insect cells transfected the baculovirus containing pBac-PAK8-GST-FLT3-KD plasmid. An FLT3^WT Kinase-Glo assay was carried out in 96-well plates at 30° C. for 4 h to test compound in a final volume of 50 μL including the following components: 75 ng GST-FLT3-KD^WT proteins, 25 mM HEPES, pH 7.4, 4 mM MnCl2, 10 mM MgCl2, 2 mM DTT, 0.02% Triton X-100, 0.1 mg/mL bovine serum albumin, 25 μM Her2 peptide substrate, 0.5 mM Na3VO4, and 1 μM ATP. Following incubation, 50 μL Kinase-Glo Plus Reagent (Promega, Madison, Wis., USA) was added to each well and the mixture was incubated at 25° C. for 20 min. A 70-μL aliquot of each reaction mixture was transferred to a black microtiter plate and the luminescence was measured on Wallac Vector 1420 multilabel counter (PerkinElmer, Shelton, Conn., USA)."}, "[2]": {"molecular_target": "T2, human c-KIT (residues T544-V976) (Homo sapiens, UniProt P10721)", "T2 construct": "human c-KIT (residues T544-V976); His (N); made in house; host or cells: baculovirus-insect cell expression system (printed '519', evidently Sf9)", "T2 sequence (P10721 544-976)": "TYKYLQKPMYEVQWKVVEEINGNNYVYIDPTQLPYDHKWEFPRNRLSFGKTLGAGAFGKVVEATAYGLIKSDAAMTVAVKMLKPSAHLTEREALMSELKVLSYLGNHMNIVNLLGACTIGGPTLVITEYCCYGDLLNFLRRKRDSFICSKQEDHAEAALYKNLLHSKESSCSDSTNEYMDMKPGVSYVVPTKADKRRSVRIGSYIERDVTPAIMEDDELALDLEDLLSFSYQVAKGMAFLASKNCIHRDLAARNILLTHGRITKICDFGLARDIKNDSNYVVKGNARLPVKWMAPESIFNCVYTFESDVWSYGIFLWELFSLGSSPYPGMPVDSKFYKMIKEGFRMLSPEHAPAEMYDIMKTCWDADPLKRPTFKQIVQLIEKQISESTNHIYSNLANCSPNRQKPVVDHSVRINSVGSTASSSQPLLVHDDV", "test": "c-Kit ADP Kinase-Glo assay", "format": "biochemical", "details": "20 μM ATP, 30° C., 150 mins; read-out: IC50, inhibiting c-Kit activity", "protocol": "A study was carried out as follows to test compound 1 HCl salt prepared according to EXAMPLE 1 in inhibiting c-Kit activity.\nThe N-terminal His-tagged human c-KIT (residues T544-V976) recombinant proteins, expressed in 519 baculovirus-insect cell expression systems, were purified for c-KIT ADP Kinase-Glo assay. A c-Kit-ADP Kinase-Glo assay was carried out in 96-well plates at 30° C. for 150 mins with a final volume of 10 μL, including 40 mM Tris pH 7.4, 20 mM MgCl2, 2 mM MnCl2, 2 mM DTT, 0.01% BSA, 20 μM ATP, 20 μM poly(Glu,Tyr) 4:1 peptide, 0.1 mM Na3VO4, 250 ng of recombinant c-Kit proteins, and a tested compound at the indicated concentration. The reactions were stopped by the addition of 5 μL ADP-Glo™ Reagent (Promega, Madison, Wis., USA) at 25° C. with 40 min incubation, followed by 10 μL of kinase detection reagent for a further 30 min. Finally, a […] aliquot of each reaction mixture was transferred to a black microtiter plate and the luminescence was measured on Wallac Vector 1420 multilabel counter (Perkin-Elmer, Shelton, Conn., USA)."}, "MOLM-13 cells": {"tested_on": "MOLM-13 cells", "test": "MTS cell viability assay, MOLM-13", "format": "cell-based", "details": "Homo sapiens, MOLM-13, 72 h", "description": "(§1) MV4:11, BaF3 and HEK293T cell lines were obtained from American Type Culture Collection (ATCC, Manassas, Va., USA). MOLM-13 cell line was purchased from the Deutsche Sammlung von Microorganismen and Zellkulturen GmbH (DSMZ, Braunschweig, Germany). The GIST-T1 cell line was obtained from COSMO BIO CO., LTD (Tokyo, Japan). The GIST-T1, MOLM-13, MV4:11, BaF3, BaF3/FLT3-D835Y, BaF3/FLT3-ITD-F691L and BaF3/FLT3-ITD-D835Y cells were maintained in RPMI 1640 medium supplemented with 10% fetal bovine serum (FBS), 10 U/mL penicillin, and 100 μg/mL streptomycin at 37° C. and 5% CO2. The kasumin-1 cells were cultured in RPMI 1640 medium supplemented with 20% fetal bovine serum (FBS), 1 mM Hepes, 1 mM sodium pyruvate, 10 U/ml penicillin, and 100 μg/ml streptomycin. The HEK293T and FLT3-transfected HEK293T cells were cultured in DMEM (Invitrogen, USA) medium with 10% FBS fetal bovine serum. […]\n(§2) Cell viability assay was performed by seeding 1×10^4 cells (MOLM-13, MV4:11, BaF3, BaF3/FLT3-D835Y, BaF3/FLT3-ITD-D835Y and BaF3/FLT3-ITD-F691L) per well in a 96-well culture plate. […] The viable cells were quantitated using the CellTiter 96 AQueous MTS method (Promega, Madison, Wis., USA) according to the manufacturer's recommended protocol. The results were determined by measuring the absorbance at 490 nm using a plate reader (Victor2; PerkinElmer, Shelton, Conn., USA). […]"}, "MV4:11 cells": {"tested_on": "MV4:11 cells", "test": "MTS cell viability assay, MV4:11", "format": "cell-based", "details": "Homo sapiens, MV4-11, 72 h", "description": "as §1, §2"}, "GIST-T1 cells": {"tested_on": "GIST-T1 cells", "test": "MTS cell viability assay, GIST-T1", "format": "cell-based", "details": "Homo sapiens, GISTT1, 72 h", "description": "as §1, §2"}, "GIST430 cells": {"tested_on": "GIST430 cells", "test": "Cell proliferation assay (methylene blue), GIST430", "format": "cell-based", "details": "Homo sapiens, GIST430, 120 h", "protocol": "(§3) GIST882, GIST48 and GIST430 cells were all cultured in incubators maintained at 37° C. and 5% CO2. GIST882 was cultured in RPMI-1640 supplemented with 20% fetal bovine serum (FBS). GIST48 was cultured with F10 supplemented with 20% FBS, 0.5% Mito, serum extender (BD Bioscience, 355006) and 1% pituitary extract bovine (BD Bioscience 354123). GIST430 was cultured in IMDM supplemented with 20% FBS. GIST882, GIST430 and GIST48 cells were provided by Dr. Jonathan A. Fletcher (Harvard Medical School, US).\n(§4) GIST cells (4×10^4) were treated with different dosage of compounds. The treated GIST882 cells were incubated for 144 h and GIST48 and GIST430 cells were incubated for 120 h at 37° C. in 5% CO2. Cell proliferation was determined by incubating the cells with methylene blue (Clontech, CA, US) for 1 hour. The absorbance was measured at 450 nm using SpectraMax M5 microplate reader (Molecular Devices, US)."}, "GIST48 cells": {"tested_on": "GIST48 cells", "test": "Cell proliferation assay (methylene blue), GIST48", "format": "cell-based", "details": "Homo sapiens, GIST48, 120 h", "protocol": "as §3, §4"}, "GIST882 cells": {"tested_on": "GIST882 cells", "test": "Cell proliferation assay (methylene blue), GIST882", "format": "cell-based", "details": "Homo sapiens, GIST882, 144 h", "protocol": "as §3, §4"}, "[3]": {"tested_on": "BaF3/FLT3-ITD-F691L cells", "test": "MTS cell viability assay, BaF3/FLT3-ITD-F691L", "format": "cell-based, murine", "details": "Mus musculus, 72 h", "description": "as §1, §2"}, "[4]": {"tested_on": "BaF3/FLT3-ITD-D835Y cells", "test": "MTS cell viability assay, BaF3/FLT3-ITD-D835Y", "format": "cell-based, murine", "details": "Mus musculus, 72 h", "description": "as §1, §2"}, "BaF3/FLT3-D835Y cells": {"tested_on": "BaF3/FLT3-D835Y cells", "test": "MTS cell viability assay, BaF3/FLT3-D835Y", "format": "cell-based, murine", "details": "Mus musculus, 72 h", "description": "as §1, §2"}, "[5]": {"tested_on": "BaF3 cells (IL3 dependent pro-B cell line)", "test": "MTS cell viability assay, BaF3 + IL3", "format": "cell-based, murine", "details": "Mus musculus; BaF3 + IL3, 72 h", "description": "as §1, §2"}, "Kasumi-1 xenografts": {"tested_on": "Kasumi-1 xenografts", "test": "In vivo efficacy study on Kasumi-1 xenografts", "parameters": "species or system SCID male mice", "details": "days 1-5 and 8-12; for Day 18 Tumor Size: control 880"}}, "note": "Counter-ions that a name gives are not always drawn.", "data": [{"smiles": "Cc1nc(Nc2ncc(-c3ccncc3)s2)cc(N2CCNCC2)n1", "note": "[Compound 1 HCl salt, 2-Methyl-6-(piperazin-1-yl)-N-[5-(pyridine-4-yl)-1,3-thiazol-2-yl]pyrimidin-4-amine dihydrochloride]", "values": [{"measurement": "IC50", "setting": "[1]", "value": "< 100", "unit": "nM"}, {"measurement": "IC50", "setting": "[2]", "value": "< 100", "unit": "nM"}, {"measurement": "GI50", "setting": "MOLM-13 cells", "value": 2.9, "unit": "nM"}, {"measurement": "GI50", "setting": "MV4:11 cells", "value": 1.3, "unit": "nM"}, {"measurement": "GI50", "setting": "GIST-T1 cells", "value": 2.3, "unit": "nM"}, {"measurement": "GI50", "setting": "GIST430 cells", "value": 33, "unit": "nM"}, {"measurement": "GI50", "setting": "GIST48 cells", "value": 20, "unit": "nM"}, {"measurement": "GI50", "setting": "GIST882 cells", "value": 8, "unit": "nM"}, {"measurement": "GI50", "setting": "[3]", "value": 95, "unit": "nM"}, {"measurement": "GI50", "setting": "[4]", "value": 53, "unit": "nM"}, {"measurement": "GI50", "setting": "BaF3/FLT3-D835Y cells", "value": 14, "unit": "nM"}, {"measurement": "GI50", "setting": "[5]", "value": 2580, "unit": "nM"}, {"measurement": "Body Weight Loss", "setting": "Kasumi-1 xenografts; 10 mg/kg oral", "value": "No"}, {"measurement": "Mortality (n = 6)", "setting": "Kasumi-1 xenografts; 10 mg/kg oral", "value": "0/6"}, {"measurement": "Day 18 Tumor Size", "setting": "Kasumi-1 xenografts; 10 mg/kg oral", "value": 700, "unit": "mm^3"}, {"measurement": "Body Weight Loss", "setting": "Kasumi-1 xenografts; 50 mg/kg oral", "value": "No"}, {"measurement": "Mortality (n = 6)", "setting": "Kasumi-1 xenografts; 50 mg/kg oral", "value": "0/6"}, {"measurement": "Day 18 Tumor Size", "setting": "Kasumi-1 xenografts; 50 mg/kg oral", "value": 80, "unit": "mm^3"}]}]}
